In patent publication EP3556748A1, “HYDROXYPHENYL-TRIAZINE UV ABSORBERS” (BASF SE, priority 2018, dated 2019):

Test: Solubility testing in cosmetic solvents / emollients (clear solution)
Assay type: physicochemical
Settings: 25°C
Procedure: The UV absorber mixture is suspended in 1200mg solvent in a glass container (sonication bath, vortex shaker). A magnetic stirring bar is added. The container is closed and stirred over night at room temperature (20-35°C).
Specification: clear solution
The solubility of Tinosorb S was determined as described in SOFW-Journal, 139, 7-2013, page 7-14.

Solubility (Cetiol AB (C12-15 Alkyl Benzoate)): 10% w/w | Solubility (Cetiol B (Dibutyl Adipate)): 12% w/w | Solubility (Cetiol CC (Dicaprylyl Carbonate)): 9% w/w | Solubility (Cetiol Ultimate (Undecane and Tridecane)): 1% w/w | Solubility (Dub DBS (Dibutyl Sebacate)): 9% w/w | Solubility (Finsolv EB: Ethylhexyl Benzoate): 17% w/w | Solubility (Myritol 318 (Caprylic/Capric Triglyceride)): 5% w/w | Solubility (Myritol 331 (Cocoglycerides)): 5% w/w
Compound: CCCCC(CC)COc1ccc(-c2nc(-c3ccc(OC)cc3)nc(-c3ccc(OCC(CC)CCCC)cc3O)n2)c(O)c1 (centres unmarked) [Tinosorb S, Bis-Ethylhexyloxyphenol Methoxyphenyl Triazine]
